From PubChem BioAssay AID1963843 (Molecular Pharmacology Branch, DTP, NCI, 2024)

System: 616215-338-R-J1-PDC complex spheroid viability
Experiment: Anticancer human tumor 616215-338-R-J1-PDC patient-derived colon adenocarcinoma cell line growth inhibition [POLQ]
Conditions: for IC50: curve of first compound; for viability, T/C: stronger effect = lower value
How it was run: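 Growth inhibition in 3D: complex spheroids (tumor PDC, HUVEC, MSC) treated with POLQ inhibitor combinations; where Cmax unknown, highest tested concentration 10 microM, except SN-38 at 1 microM.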

[1] = second compound 0.0316 µM, first compound 0.0316 µM
[2] = second compound 0.0316 µM, first compound 0.1 µM
[3] = second compound 0.0316 µM, first compound 0.316 µM
[4] = second compound 0.0316 µM, first compound 1 µM
[5] = second compound 0.0316 µM, first compound 3.16 µM
[6] = second compound 0.0316 µM, first compound 10 µM
[7] = second compound 0.1 µM, first compound 0.0316 µM
[8] = second compound 0.1 µM, first compound 0.1 µM
[9] = second compound 0.1 µM, first compound 0.316 µM
[10] = second compound 0.1 µM, first compound 1 µM
[11] = second compound 0.1 µM, first compound 3.16 µM
[12] = second compound 0.1 µM, first compound 10 µM
[13] = second compound 0.316 µM, first compound 0.0316 µM
[14] = second compound 0.316 µM, first compound 0.1 µM
[15] = second compound 0.316 µM, first compound 0.316 µM
[16] = second compound 0.316 µM, first compound 1 µM
[17] = second compound 0.316 µM, first compound 3.16 µM
[18] = second compound 0.316 µM, first compound 10 µM
[19] = second compound 1 µM, first compound 0.0316 µM
[20] = second compound 1 µM, first compound 0.1 µM
[21] = second compound 1 µM, first compound 0.316 µM
[22] = second compound 1 µM, first compound 1 µM
[23] = second compound 1 µM, first compound 3.16 µM
[24] = second compound 1 µM, first compound 10 µM
[25] = second compound 3.16 µM, first compound 0.0316 µM
[26] = second compound 3.16 µM, first compound 0.1 µM
[27] = second compound 3.16 µM, first compound 0.316 µM
[28] = second compound 3.16 µM, first compound 1 µM
[29] = second compound 3.16 µM, first compound 3.16 µM
[30] = second compound 3.16 µM, first compound 10 µM
[31] = second compound 10 µM, first compound 0.0316 µM
[32] = second compound 10 µM, first compound 0.1 µM
[33] = second compound 10 µM, first compound 0.316 µM
[34] = second compound 10 µM, first compound 1 µM
[35] = second compound 10 µM, first compound 3.16 µM
[36] = second compound 10 µM, first compound 10 µM
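Also: spheroids exposed to compounds for one week before readout.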
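For viability, T/C in this document: percent viability relative to DMSO vehicle wells taken as 100%.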

CC1COCCN1c1cc(C2(S(C)(=N)=O)CC2)nc(-c2ccnc3[nH]ccc23)n1 (stereo unspecified) + Cc1cccc(N(C)C(=O)C2C(O)CCN2c2nc(C)cc(C(F)(F)F)c2C#N)c1
IC50 (second compound 0.0316 µM): > 10 µM | IC50 (second compound 0.1 µM): > 10 µM | IC50 (second compound 0.316 µM): > 10 µM | IC50 (second compound 1 µM): > 10 µM | IC50 (second compound 3.16 µM): > 10 µM | IC50 (second compound 10 µM): > 10 µM | viability, T/C [1]: 88.5% | viability, T/C [2]: 104% | viability, T/C [3]: 94.8% | viability, T/C [4]: 99.7% | viability, T/C [5]: 101% | viability, T/C [6]: 69.1% | viability, T/C [7]: 102% | viability, T/C [8]: 95.1% | viability, T/C [9]: 101% | viability, T/C [10]: 101% | viability, T/C [11]: 95.6% | viability, T/C [12]: 68.2% | viability, T/C [13]: 94.9% | viability, T/C [14]: 98.9% | viability, T/C [15]: 96.8% | viability, T/C [16]: 102% | viability, T/C [17]: 89.1% | viability, T/C [18]: 62% | viability, T/C [19]: 113% | viability, T/C [20]: 102% | viability, T/C [21]: 98.2% | viability, T/C [22]: 101% | viability, T/C [23]: 97% | viability, T/C [24]: 69.1% | viability, T/C [25]: 102% | viability, T/C [26]: 96% | viability, T/C [27]: 91.5% | viability, T/C [28]: 104% | viability, T/C [29]: 86.4% | viability, T/C [30]: 74.7% | viability, T/C [31]: 114% | viability, T/C [32]: 111% | viability, T/C [33]: 103% | viability, T/C [34]: 111% | viability, T/C [35]: 95.7% | viability, T/C [36]: 71.7%

COc1ccc([C@@H](O)c2cc(-c3ncnc4cc(N5CCOCC5)ccc34)c(F)cc2Cl)nn1 + Cc1cccc(N(C)C(=O)C2C(O)CCN2c2nc(C)cc(C(F)(F)F)c2C#N)c1
IC50 (second compound 0.0316 µM): > 10 µM | IC50 (second compound 0.1 µM): > 10 µM | IC50 (second compound 0.316 µM): > 10 µM | IC50 (second compound 1 µM): > 10 µM | IC50 (second compound 3.16 µM): > 10 µM | IC50 (second compound 10 µM): > 10 µM | viability, T/C [1]: 97.8% | viability, T/C [2]: 108% | viability, T/C [3]: 94.8% | viability, T/C [4]: 113% | viability, T/C [5]: 101% | viability, T/C [6]: 78.7% | viability, T/C [7]: 92.6% | viability, T/C [8]: 108% | viability, T/C [9]: 108% | viability, T/C [10]: 109% | viability, T/C [11]: 100% | viability, T/C [12]: 72.2% | viability, T/C [13]: 108% | viability, T/C [14]: 108% | viability, T/C [15]: 100% | viability, T/C [16]: 111% | viability, T/C [17]: 109% | viability, T/C [18]: 73.5% | viability, T/C [19]: 114% | viability, T/C [20]: 111% | viability, T/C [21]: 109% | viability, T/C [22]: 122% | viability, T/C [23]: 103% | viability, T/C [24]: 70.5% | viability, T/C [25]: 97.5% | viability, T/C [26]: 104% | viability, T/C [27]: 102% | viability, T/C [28]: 102% | viability, T/C [29]: 105% | viability, T/C [30]: 80.3% | viability, T/C [31]: 112% | viability, T/C [32]: 100% | viability, T/C [33]: 99.8% | viability, T/C [34]: 111% | viability, T/C [35]: 99.8% | viability, T/C [36]: 55.6%

Cn1ncnc1[C@H]1c2n[nH]c(=O)c3cc(F)cc(c23)N[C@@H]1c1ccc(F)cc1 + Cc1cccc(N(C)C(=O)C2C(O)CCN2c2nc(C)cc(C(F)(F)F)c2C#N)c1
IC50 (second compound 0.0316 µM): > 0.1 µM | IC50 (second compound 0.1 µM): > 0.1 µM | IC50 (second compound 0.316 µM): > 0.1 µM | IC50 (second compound 1 µM): > 0.1 µM | IC50 (second compound 3.16 µM): > 0.1 µM | IC50 (second compound 10 µM): > 0.1 µM | viability, T/C (second compound 0.0316 µM, first compound 0.000316 µM): 106% | viability, T/C (second compound 0.0316 µM, first compound 0.001 µM): 87.5% | viability, T/C (second compound 0.0316 µM, first compound 0.00316 µM): 92.1% | viability, T/C (second compound 0.0316 µM, first compound 0.01 µM): 102% | viability, T/C [1]: 105% | viability, T/C [2]: 99.3% | viability, T/C (second compound 0.1 µM, first compound 0.000316 µM): 108% | viability, T/C (second compound 0.1 µM, first compound 0.001 µM): 99.5% | viability, T/C (second compound 0.1 µM, first compound 0.00316 µM): 101% | viability, T/C (second compound 0.1 µM, first compound 0.01 µM): 105% | viability, T/C [7]: 108% | viability, T/C [8]: 108% | viability, T/C (second compound 0.316 µM, first compound 0.000316 µM): 104% | viability, T/C (second compound 0.316 µM, first compound 0.001 µM): 104% | viability, T/C (second compound 0.316 µM, first compound 0.00316 µM): 109% | viability, T/C (second compound 0.316 µM, first compound 0.01 µM): 105% | viability, T/C [13]: 110% | viability, T/C [14]: 97.3% | viability, T/C (second compound 1 µM, first compound 0.000316 µM): 101% | viability, T/C (second compound 1 µM, first compound 0.001 µM): 101% | viability, T/C (second compound 1 µM, first compound 0.00316 µM): 111% | viability, T/C (second compound 1 µM, first compound 0.01 µM): 106% | viability, T/C [19]: 115% | viability, T/C [20]: 104% | viability, T/C (second compound 3.16 µM, first compound 0.000316 µM): 116% | viability, T/C (second compound 3.16 µM, first compound 0.001 µM): 106% | viability, T/C (second compound 3.16 µM, first compound 0.00316 µM): 101% | viability, T/C (second compound 3.16 µM, first compound 0.01 µM): 109% | viability, T/C [25]: 104% | viability, T/C [26]: 97.1% | viability, T/C (second compound 10 µM, first compound 0.000316 µM): 106% | viability, T/C (second compound 10 µM, first compound 0.001 µM): 107% | viability, T/C (second compound 10 µM, first compound 0.00316 µM): 111% | viability, T/C (second compound 10 µM, first compound 0.01 µM): 102% | viability, T/C [31]: 99.1% | viability, T/C [32]: 98.6%
